Test [1] addresses CDK4/cyclin D1 (Homo sapiens (Human), UniProt P11802). In words: CDK4/cyclin D1 enzymatic activity assay (TR-FRET, phosphorylation of pRb at Ser780). Type of test: biochemical. In outline: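 Phosphorylation at pRb Ser780, detected by TR-FRET, gave IC50s and kinetics. Enzyme: baculovirus/Sf21-expressed human CDK4/cyclin D1. ATP at 3 μM initiated the reaction; EDTA (pH 8.0) stopped it after 60 min at 22° C.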
In general terms: In TR-FRET formats the signal depends on donor and acceptor labels being close together.

Test [2] relates to phosphorylation of pRb at the Ser780 site in JeKo-1 mantle cell lymphoma cells. The test can be described thus: CDK4 cellular assay: ELISA of pRb phosphorylation at Ser780 in JeKo-1 cells. Type of test: cell-based. (In general: In an ELISA, binding on a coated surface is turned into a signal by an enzyme label.)
The target of test [3] is CDK1/cyclin B (Homo sapiens (Human), UniProt P06493). In words: CDK1/cyclin B enzymatic activity assay (IMAP-FP). Format: biochemical. The conditions noted are these: 100 nM Tamra Histone-H1 peptide, 20 μM ATP, 120 min at room temperature, read-out: Biochemical CDK1 enzyme IC50. An excerpt:
CDK1/Cyclin B Enzymatic Activity Assay
A 384-well microtiter IMAP-FP™ (Molecular Devices Trade Mark Technology) endpoint assay was used for CDK1/cyclin B kinase activity measurements. The same assay was used for IC50 determination of small molecule inhibitors.

The mark [4] stands for this setting: 0.3 nM CDK4/cyclin D1, 150 nM biotin-pRb (773-924), 3 μM ATP, 60 min at 22° C., read-out: Biochemical CDK4 enzyme IC50.
Setting [5] is: Homo sapiens, JeKo-1, JeKo-1 cells, p-pRb % inhibition adjusted with total pRb levels, read-out: Normalized cellular ppRb inhibition IC50.
[6] abbreviates: Homo sapiens, JeKo-1, JeKo-1 cells, p-pRb Ser780 ELISA, non-normalized, read-out: Cellular ppRb inhibition IC50.
The mark [7] stands for this setting: Homo sapiens, JeKo-1 cells, p-pRb % inhibition adjusted with total pRb levels, read-out: Normalized cellular ppRb inhibition IC50.
Setting [8] is: Homo sapiens, JeKo-1 cells, p-pRb Ser780 ELISA, non-normalized, read-out: Cellular ppRb inhibition IC50.
The mark [9] stands for this setting: Homo sapiens, JeKo-1, read-out: Cellular ppRb inhibition IC50.
Where [10] appears, read: Homo sapiens, JeKo-1, read-out: Normalized cellular ppRb inhibition IC50.

The structures appear in SMILES notation. Like-named read-outs stand apart in the source and are kept apart here.

Sequence of CDK1/cyclin B (P06493 whole entry, species assumed): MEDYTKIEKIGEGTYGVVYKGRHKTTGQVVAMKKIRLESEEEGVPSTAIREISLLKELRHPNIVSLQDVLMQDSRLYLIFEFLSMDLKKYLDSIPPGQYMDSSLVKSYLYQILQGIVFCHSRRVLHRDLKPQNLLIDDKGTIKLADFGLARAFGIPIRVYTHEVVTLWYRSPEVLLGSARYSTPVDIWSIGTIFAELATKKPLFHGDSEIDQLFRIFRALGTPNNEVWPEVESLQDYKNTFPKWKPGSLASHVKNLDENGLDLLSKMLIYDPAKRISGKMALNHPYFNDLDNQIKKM
Sequence of CDK1/cyclin B (P14635 whole entry partner, species assumed): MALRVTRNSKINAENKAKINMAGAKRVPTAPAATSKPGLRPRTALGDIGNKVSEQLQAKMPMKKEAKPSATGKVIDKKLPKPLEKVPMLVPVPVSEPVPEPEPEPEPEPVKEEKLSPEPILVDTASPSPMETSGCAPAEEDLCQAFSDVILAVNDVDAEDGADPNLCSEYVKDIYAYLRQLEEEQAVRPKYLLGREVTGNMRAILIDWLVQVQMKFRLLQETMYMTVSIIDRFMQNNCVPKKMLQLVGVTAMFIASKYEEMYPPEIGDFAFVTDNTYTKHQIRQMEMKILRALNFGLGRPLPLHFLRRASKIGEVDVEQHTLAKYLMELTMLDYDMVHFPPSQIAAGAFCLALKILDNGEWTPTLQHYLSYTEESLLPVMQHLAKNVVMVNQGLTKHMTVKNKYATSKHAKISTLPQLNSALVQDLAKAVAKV
Sequence of CDK4/cyclin D1 (P11802 whole entry): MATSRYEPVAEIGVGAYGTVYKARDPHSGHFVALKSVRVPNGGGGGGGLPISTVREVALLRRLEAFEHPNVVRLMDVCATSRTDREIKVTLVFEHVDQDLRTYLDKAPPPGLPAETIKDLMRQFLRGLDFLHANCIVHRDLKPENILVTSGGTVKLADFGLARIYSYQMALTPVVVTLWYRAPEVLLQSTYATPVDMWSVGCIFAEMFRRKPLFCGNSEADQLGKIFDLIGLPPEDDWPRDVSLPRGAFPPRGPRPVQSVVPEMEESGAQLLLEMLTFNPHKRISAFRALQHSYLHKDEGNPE
Sequence of CDK4/cyclin D1 (P24385 whole entry partner): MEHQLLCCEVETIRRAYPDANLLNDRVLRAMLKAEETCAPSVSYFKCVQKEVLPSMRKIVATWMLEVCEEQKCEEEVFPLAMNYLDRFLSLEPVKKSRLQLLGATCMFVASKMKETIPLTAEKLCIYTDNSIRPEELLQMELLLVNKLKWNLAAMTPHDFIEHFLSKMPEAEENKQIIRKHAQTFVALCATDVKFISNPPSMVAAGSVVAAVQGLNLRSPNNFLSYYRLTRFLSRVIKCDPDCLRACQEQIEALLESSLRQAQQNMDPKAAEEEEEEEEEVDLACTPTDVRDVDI

Consider `CNC(=O)c1cc2cnc(Nc3ccc(C(=O)N4C[C@@H]5C[C@H]4CN5)cn3)nc2n1C1CCCC1` [Example 24, 7-Cyclopentyl-2-[5-((S,S)-2,5-diaza-bicyclo[2.2.1]heptane-2-carbonyl)-pyridin-2-ylamino]-7H-pyrrolo[2,3-d]pyrimidine-6-carboxylic acid methylamide], for which the IC50 in test [1] (setting [4]) is 49 nM; in test [2] (JeKo-1 cells, p-pRb % inhibition adjusted with total pRb levels, read-out: Normalized cellular ppRb inhibition IC50) it was 272 nM; in test [2] (JeKo-1 cells, p-pRb Ser780 ELISA, non-normalized, read-out: Cellular ppRb inhibition IC50), 266 nM; in test [3] ([…] CDK1/cyclin B), over 15000 nM.
For `CN(C)C(=O)c1cc2cnc(Nc3ccc(C(=O)N4CC5CCC(C4)N5)cn3)nc2n1[C@@H]1C[C@H]2CC[C@@H]1C2` (stereo in doubt) [Example 36, 7-(1R,2R,4S)-Bicyclo[2.2.1]hept-2-yl-2-[5-(3,8-diaza-bicyclo[3.2.1]octane-3-carbonyl)-pyridin-2-ylamino]-7H-pyrrolo[2,3-d]pyrimidine-6-carboxylic acid dimethylamide], the IC50 in test [1] (setting [4]) came out at 3 nM; in test [2] (setting [5]), 28 nM; in test [2] (setting [6]) it was 23 nM; in test [3] ([…] CDK1/cyclin B), 13000 nM.
For the compound `CN(C)C(=O)c1cc2cnc(Nc3ccc(N4CCN5CCC[C@H]5C4=O)cn3)nc2n1C1CCCC1` [Example 146], the IC50 in test [1] (setting [4]) was 619 nM; in test [2] (setting [5]) it was 2900 nM; in test [2] (setting [6]) it was 2700 nM; in test [3] ([…] CDK1/cyclin B), over 15000 nM.
The matching figures for `CN(C)C(=O)c1cc2cnc(Nc3ccc(N4CCN5CCCCC5C4=O)cn3)nc2n1C1CCCC1` (stereo not shown) [Example 99, 7-Cyclopentyl-2-[5-(1-oxo-octahydro-pyrido[1,2-a]pyrazin-2-yl)-pyridin-2-ylamino]-7H-pyrrolo[2,3-d]pyrimidine-6-carboxylic acid dimethylamide]: 71 nM, 618 nM, 463 nM and over 15000 nM.
`CN(C)C(=O)c1cc2cnc(Nc3ccc(C(=O)N4CCC5(CC4)CNC5)cn3)nc2n1C1CCCCCC1` [Example 5, 2-(5-(2,7-diazaspiro[3.5]nonane-7-carbonyl)pyridin-2-ylamino)-7-cycloheptyl-N,N-dimethyl-7H-pyrrolo[2,3-d]pyrimidine-6-carboxamide]: the IC50 in test [1] (setting [4]) was 8 to 16 nM; in test [2] (setting [7]), 117 nM; in test [2] (setting [8]), 115 nM; in test [3] ([…] CDK1/cyclin B), over 15000 nM.
The matching figures for `CC(C)N1[C@@H]2CC[C@H]1CN(c1ccc(Nc3ncc4cc(C(=O)N(C)C)n(C5CCCC5)c4n3)nc1)C(=O)C2` [Example 142, 7-Cyclopentyl-2-[5-((1S,6R)-9-isopropyl-4-oxo-3,9-diaza-bicyclo[4.2.1]non-3-yl)-pyridin-2-ylamino]-7H-pyrrolo[2,3-d]pyrimidine-6-carboxylic acid dimethylamide]: 34 nM, 13 nM, 6 nM and over 15000 nM.
For `CN(C)C(=O)c1cc2cnc(Nc3ccc(N4C[C@@H]5CC[C@H](CC4=O)N5)cn3)nc2n1C1CCC1` [Example 135, 7-Cyclobutyl-2-[5-((1S,6R)-4-oxo-3,9-diaza-bicyclo[4.2.1]non-3-yl)-pyridin-2-ylamino]-7H-pyrrolo[2,3-d]pyrimidine-6-carboxylic acid dimethylamide], the IC50 was 7 nM in test [1] (setting [4]), 38 nM in test [2] (setting [5]), 19 nM in test [2] (setting [6]) and over 15000 nM in test [3] ([…] CDK1/cyclin B).
As for `CN(C)C(=O)c1cc2cnc(Nc3ccc(N4C[C@H]5CNC[C@H]5CC4=O)cn3)nc2n1C1CCCCCC1` (stereo in doubt) [Example 88, 7-cycloheptyl-N,N-dimethyl-2-(5-(cis-6-oxotetrahydro-1H-pyrrolo[3,4-c]pyridin-5(6H, 7H, 7a H)-yl)pyridin-2-ylamino)-7H-pyrrolo[2,3-d]pyrimidine-6-carboxamide], the IC50 in test [1] (setting [4]) was determined as 5 nM; in test [2] (setting [5]), 11 nM; in test [2] (setting [6]), 7 nM; in test [3] ([…] CDK1/cyclin B), 2510 nM.
As to `CN(C)C(=O)c1cc2cnc(Nc3ccc(N4C[C@@H]5CNC[C@@H]5CC4=O)cn3)nc2n1C1CCCCCC1` (stereo in doubt) [Example 89, 7-cycloheptyl-N,N-dimethyl-2-(5-(cis-6-oxotetrahydro-1H-pyrrolo[3,4-c]pyridin-5(6H,7H,7aH)-yl)pyridin-2-ylamino)-7H-pyrrolo[2,3-d]pyrimidine-6-carboxamide], the IC50 in test [1] (setting [4]) is 3 nM; in test [2] (setting [5]), 4 to 15 nM; in test [2] (setting [6]), 5 to 7 nM; in test [3] ([…] CDK1/cyclin B), 6480 nM.
For `CN(C)C(=O)c1cc2cnc(Nc3ccc(N4CC5CC5(N)C4)cn3)nc2n1C1CCCC1` (stereo not shown) [Example 78, 2-[5-(1-Amino-3-aza-bicyclo[3.1.0]hex-3-yl)-pyridin-2-ylamino]-7-cyclopentyl-7H-pyrrolo[2,3-d]pyrimidine-6-carboxylic acid dimethylamide], the IC50 in test [1] (setting [4]) is 76 nM; in test [2] (setting [9]), 59 nM; in test [3] (0.25 nM CDK1/cyclin B), over 15000 nM.
As for `CN(C)C(=O)c1cc2cnc(Nc3ccc(N4C[C@]5(CCCNCC5)OC4=O)cn3)nc2n1C1CCCC1` [Example 106, 7-Cyclopentyl-2-[5-((R)-2-oxo-1-oxa-3,8-diaza-spiro[4.6]undec-3-yl)-pyridin-2-ylamino]-7H-pyrrolo[2,3-d]pyrimidine-6-carboxylic acid dimethylamide], the IC50 in test [1] (setting [4]) is 15 nM; in test [2] (setting [7]), 114 nM; in test [2] (setting [8]) it was 70 nM; in test [3] ([…] CDK1/cyclin B) it was over 15000 nM.
Turning to `[2H]C([2H])([2H])N1[C@@H]2CC[C@H]1CN(c1ccc(Nc3ncc4cc(C(=O)N(C)C)n(C5CCCC5)c4n3)nc1)C(=O)C2` [Example 143, 7-Cyclopentyl-2-[5-((1S,6R)-9-trideuteromethyl-4-oxo-3,9-diazabicyclo[4.2.1]non-3-yl)-pyridin-2-ylamino]-7H-pyrrolo[2,3-d]pyrimidine-6-carboxylic acid dimethylamide], the IC50 was 44 nM in test [1] (setting [4]), 251 nM in test [2] (setting [5]), 119 nM in test [2] (setting [6]) and over 15000 nM in test [3] (0.25 nM CDK1/cyclin B).
With `CN(C)C(=O)c1cc2cnc(Nc3ccc(N4CC5CNCC5C4=O)cn3)nc2n1C1CCCCCC1` (stereo not shown) [Example 81, 7-Cycloheptyl-2-[5-(1-oxo-hexahydro-pyrrolo[3,4-c]pyrrol-2-yl)-pyridin-2-ylamino]-7H-pyrrolo[2,3-d]pyrimidine-6-carboxylic acid dimethylamide], the IC50 in test [1] is under 5 nM; in test [2] (setting [9]), 3 nM; in test [2] (setting [10]) it was 4 nM; in test [3] (0.25 nM CDK1/cyclin B), 3810 nM.
As to `CN(C)C(=O)c1cc2cnc(Nc3ccc(N4CC5(CCCNC5)OC4=O)cn3)nc2n1C1CCCC1` (stereo not shown) [Example 107, 7-cyclopentyl-N,N-dimethyl-2-(5-(2-oxo-1-oxa-3,7-diazaspiro[4.5]decan-3-yl)pyridin-2-ylamino)-7H-pyrrolo[2,3-d]pyrimidine-6-carboxamide], the IC50 was 9 nM in test [1] (setting [4]), 37 to 114 nM in test [2] (setting [7]), 13 to 49 nM in test [2] (setting [8]) and over 15000 nM in test [3] ([…] CDK1/cyclin B).
Take `CN(C)C(=O)c1cc2cnc(Nc3ccc(C(=O)N4CC5CCC(C4)N5C(=O)CN)cn3)nc2n1C1CCCC1` [Example 60, 2-{5-[8-(2-Amino-acetyl)-3,8-diaza-bicyclo[3.2.1]octane-3-carbonyl]-pyridin-2-ylamino}-7-cyclopentyl-7H-pyrrolo[2,3-d]pyrimidine-6-carboxylic acid dimethylamide]: the IC50 in test [1] (setting [4]) was 19 nM; in test [2] (setting [7]) it was 47 nM; in test [2] (setting [8]), 21 nM; in test [3] ([…] CDK1/cyclin B), over 15000 nM.
`CN(C)C(=O)c1cc2cnc(Nc3ccc(N4C(=O)CN5CCC4CC5)cn3)nc2n1C1CCCCCC1` [Example 97, 7-cycloheptyl-N,N-dimethyl-2-(5-(3-oxo-1,4-diazabicyclo[3.2.2]nonan-4-yl)pyridin-2-ylamino)-7H-pyrrolo[2,3-d]pyrimidine-6-carboxamide]: the IC50 in test [1] (setting [4]) was 51 nM; in test [2] (setting [9]), 66 nM; in test [2] (setting [10]), 145 nM; in test [3] (0.25 nM CDK1/cyclin B) it was over 15000 nM.
Turning to `CN(C)C(=O)c1cc2cnc(Nc3ccc(N4C[C@@H]5CC[C@H](CC4=O)N5)cn3)nc2n1-c1ccccc1` [Example 129, 2-[5-((1S,6R)-4-Oxo-3,9-diaza-bicyclo[4.2.1]non-3-yl)-pyridin-2-ylamino]-7-phenyl-7H-pyrrolo[2,3-d]pyrimidine-6-carboxylic acid dimethylamide], the IC50 in test [1] (setting [4]) was 48 nM; in test [2] (setting [5]), 221 nM; in test [2] (setting [6]) it was 194 nM; in test [3] ([…] CDK1/cyclin B) it was over 15000 nM.

What is called IC50 is the concentration that gives 50% inhibition.

These data come from US8957074B2 (Novartis AG, priority 2010, dated 2015).
